Experimental findings from patent publication US10376513B2, “Heterocyclylamines as PI3K inhibitors” (Incyte Corporation, priority 2011, dated 2019) are described below.

Each structure is given as a SMILES string.

This assay deals with PI3Kδ (p110δ/p85α) (Homo sapiens (Human), UniProt O00329). As to the kind of experiment: PI3Kδ scintillation proximity assay (Example A3). Type of assay: biochemical. As to conditions: 20 μM ATP, 4 nM PI3Kδ, read-out: PI3Kδ SPA IC50. As to the method: [γ-^33P]ATP (10 mCi/mL) was purchased from Perkin-Elmer (Waltham, Mass.). […] PI3Kδ (p110δ/p85α) was purchased from Millipore (Bedford, Mass.). ATP, MgCl2, DTT, EDTA, MOPS and CHAPS were purchased from Sigma-Aldrich (St. Louis, Mo.). Wheat Germ Agglutinin (WGA) YSi SPA Scintillation Beads was purchased from GE healthcare life sciences (Piscataway, N.J.).
Sequence of PI3Kδ (p110δ/p85α) (O00329 whole entry, species assumed): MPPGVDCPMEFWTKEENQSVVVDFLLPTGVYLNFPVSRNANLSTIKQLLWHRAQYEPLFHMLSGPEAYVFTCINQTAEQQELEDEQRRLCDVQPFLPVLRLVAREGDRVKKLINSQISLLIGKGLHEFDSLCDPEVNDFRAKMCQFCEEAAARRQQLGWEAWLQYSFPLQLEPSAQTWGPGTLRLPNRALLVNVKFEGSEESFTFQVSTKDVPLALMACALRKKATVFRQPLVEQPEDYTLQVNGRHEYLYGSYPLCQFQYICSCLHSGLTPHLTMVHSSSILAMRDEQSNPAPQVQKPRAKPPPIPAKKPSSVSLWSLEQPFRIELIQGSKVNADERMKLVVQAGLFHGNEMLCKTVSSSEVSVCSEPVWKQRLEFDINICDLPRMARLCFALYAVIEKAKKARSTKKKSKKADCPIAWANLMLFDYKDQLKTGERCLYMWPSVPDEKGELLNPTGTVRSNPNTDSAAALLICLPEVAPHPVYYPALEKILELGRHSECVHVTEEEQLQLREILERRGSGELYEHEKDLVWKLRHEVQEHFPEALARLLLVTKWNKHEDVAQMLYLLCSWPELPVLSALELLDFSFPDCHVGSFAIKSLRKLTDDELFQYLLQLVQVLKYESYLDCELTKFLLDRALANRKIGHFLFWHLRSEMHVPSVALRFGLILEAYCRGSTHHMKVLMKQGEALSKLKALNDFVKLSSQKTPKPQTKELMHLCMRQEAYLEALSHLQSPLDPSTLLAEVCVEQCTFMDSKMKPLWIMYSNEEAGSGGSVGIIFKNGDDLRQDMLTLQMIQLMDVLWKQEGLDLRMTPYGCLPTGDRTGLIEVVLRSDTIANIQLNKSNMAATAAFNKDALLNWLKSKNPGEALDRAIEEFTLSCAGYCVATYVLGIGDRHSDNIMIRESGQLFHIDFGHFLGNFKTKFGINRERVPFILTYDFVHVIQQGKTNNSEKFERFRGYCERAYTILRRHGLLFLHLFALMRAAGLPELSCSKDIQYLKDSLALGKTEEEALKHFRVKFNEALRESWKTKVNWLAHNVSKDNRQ
Sequence of PI3Kδ (p110δ/p85α) (P27986 whole entry partner, species assumed): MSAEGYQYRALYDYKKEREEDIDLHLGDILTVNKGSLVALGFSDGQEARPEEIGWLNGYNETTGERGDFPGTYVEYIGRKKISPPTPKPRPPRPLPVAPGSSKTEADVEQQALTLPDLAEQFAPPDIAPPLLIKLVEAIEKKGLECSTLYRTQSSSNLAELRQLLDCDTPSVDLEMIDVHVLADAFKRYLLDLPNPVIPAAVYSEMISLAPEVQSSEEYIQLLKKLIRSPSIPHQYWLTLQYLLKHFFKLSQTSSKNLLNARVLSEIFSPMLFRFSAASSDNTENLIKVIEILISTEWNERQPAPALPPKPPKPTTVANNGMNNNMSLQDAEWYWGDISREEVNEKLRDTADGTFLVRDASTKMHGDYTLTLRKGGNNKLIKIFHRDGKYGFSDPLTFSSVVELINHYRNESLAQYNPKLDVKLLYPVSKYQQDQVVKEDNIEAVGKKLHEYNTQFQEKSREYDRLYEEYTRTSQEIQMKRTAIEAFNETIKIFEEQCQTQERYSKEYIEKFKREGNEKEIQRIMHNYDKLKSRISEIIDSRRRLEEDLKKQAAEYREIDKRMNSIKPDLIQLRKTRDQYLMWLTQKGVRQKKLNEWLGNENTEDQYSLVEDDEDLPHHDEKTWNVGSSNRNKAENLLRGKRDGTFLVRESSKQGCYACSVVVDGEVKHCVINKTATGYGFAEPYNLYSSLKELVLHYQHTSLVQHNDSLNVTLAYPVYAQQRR
The kinase reaction was conducted in polystyrene 384-well matrix white plate from Thermo Fisher Scientific in a final volume of 25 μL. Inhibitors were first diluted serially in DMSO and added to the plate wells before the addition of other reaction components. The final concentration of DMSO in the assay was 0.5%. The PI3K assays were carried out at room temperature in 20 mM MOPS, pH 6.7, 10 mM MgCl2, 5 mM DTT and CHAPS 0.03%. Reactions were initiated by the addition of ATP, the final reaction mixture consisted of 20 μM PIP2, 20 μM ATP, 0.2 μCi [γ-^33P] ATP, 4 nM PI3Kδ. […] 25 mM EDTA, 400 μM ATP. The final concentration of SPA beads was 1.0 mg/mL. After the plate sealing, plates were shaken overnight at room temperature and centrifuged at 1800 rpm for 10 minutes, the radioactivity of the product was determined by scintillation counting on Topcount (Perkin-Elmer). IC50 determination was performed by fitting the curve of percent control activity versus the log of the inhibitor concentration using the GraphPad Prism 3.0 software.
In general terms: SPA uses beads or plates that emit light when radiolabelled molecules are held near them.
With `COc1c(C(C)n2nc(C)c3c(N)ncnc32)cc(Cl)c(C)c1-c1cncc(C(=O)N(C)C2CC2)c1` (centres unmarked) [Example 174, 5-(3-(1-(4-Amino-3-methyl-1H-pyrazolo[3,4-d]pyrimidin-1-yl)ethyl)-5-chloro-2-methoxy-6-methylphenyl)-N-cyclopropyl-N-methylnicotinamide bis(2,2,2-trifluoroacetate)], the half-inhibitory concentration (IC50) is less than 10 nM. Turning to `COc1c(C(C)n2nc(C(F)F)c3c(N)ncnc32)cc(Cl)c(C)c1-c1ccc(C(=O)N(C)C)nc1` (centres unmarked) [Example 191, 5-(3-{1-[4-Amino-3-(difluoromethyl)-1H-pyrazolo[3,4-d]pyrimidin-1-yl]ethyl}-5-chloro-2-methoxy-6-methylphenyl)-N,N-dimethylpyridine-2-carboxamide], the half-maximal inhibitory concentration (IC50) was less than 10 nM.

For the compound `Cc1c(Cl)cc(C(C)n2nc(C)c3c(N)ncnc32)c(OCC(F)F)c1-c1ccc(C(=O)N(C)C)nc1` (centres unmarked) [Example 189, 5-(3-(1-(4-Amino-3-methyl-1H-pyrazolo[3,4-d]pyrimidin-1-yl)ethyl)-5-chloro-2-(2,2-difluoroethoxy)-6-methylphenyl)-N,N-dimethylpicolinamide bis(2,2,2-trifluoroacetate)], the IC50 was less than 10 nM. As for `CCOc1c(C(C)n2nc(C)c3c(N)ncnc32)cc(Cl)c(C)c1-c1cnn(CC(N)=O)c1` (centres unmarked) [Example 203, 2-(4-(3-(1-(4-Amino-3-methyl-1H-pyrazolo[3,4-d]pyrimidin-1-yl)ethyl)-5-chloro-2-ethoxy-6-methylphenyl)-1H-pyrazol-1-yl)acetamide], the figure is less than 10 nM; as for `COc1c(C(C)n2nc(C)c3c(N)ncnc32)cc(Cl)c(C)c1-c1ccc(OCCO)nc1` (centres unmarked) [Example 188, 2-(5-(3-(1-(4-Amino-3-methyl-1H-pyrazolo[3,4-d]pyrimidin-1-yl)ethyl)-5-chloro-2-methoxy-6-methylphenyl)pyridin-2-yloxy)ethanol], less than 10 nM. With `COc1c(C(C)n2nc(C)c3c(N)ncnc32)cc(Cl)c(F)c1C1CN(C[C@H](C)O)C1` (single isomer, unassigned) [68 (2nd peak)] the figure was less than 10 nM; with `CCOc1c(C(C)n2nc(C)c3c(N)ncnc32)cc(Cl)c(C)c1C#N` (centres unmarked) [Example 211, 3-[1-(4-Amino-3-methyl-1H-pyrazolo[3,4-d]pyrimidin-1-yl)ethyl]-5-chloro-2-ethoxy-6-methylbenzonitrile], less than 10 nM; with `CCOc1c(C(C)n2nc(C)c3c(N)ncnc32)cc(Cl)c(C)c1-c1ccc(C(=O)N(C)C)cn1` (centres unmarked) [Example 208, 6-{3-[1-(4-Amino-3-methyl-1H-pyrazolo[3,4-d]pyrimidin-1-yl)ethyl]-5-chloro-2-ethoxy-6-methylphenyl}-N,N-dimethylnicotinamide bis(trifluoroacetate)], less than 10 nM. As for `COc1c(C(C)n2nc(C)c3c(N)ncnc32)cc(Cl)c(C)c1CC#N` (centres unmarked) [Example 194, {3-[1-(4-Amino-3-methyl-1H-pyrazolo[3,4-d]pyrimidin-1-yl)ethyl]-5-chloro-2-methoxy-6-methylphenyl}acetonitrile], the figure is less than 10 nM; as for `Cc1c(Cl)cc(C(C)n2nc(C)c3c(N)ncnc32)c(OCC2CC2)c1-c1ccc(C(=O)N(C)C)nc1` (centres unmarked) [Example 190, 5-(3-(1-(4-Amino-3-methyl-1H-pyrazolo[3,4-d]pyrimidin-1-yl)ethyl)-5-chloro-2-(cyclopropylmethoxy)-6-methylphenyl)-N,N-dimethylpicolinamide bis(2,2,2-trifluoroacetate)], less than 10 nM; as for `COc1c(C(C)n2nc(C)c3c(N)ncnc32)cc(Cl)c(C)c1-c1ccc(NCCO)nc1` (centres unmarked) [Example 184, 2-[(5-{3-[1-(4-Amino-3-methyl-1H-pyrazolo[3,4-d]pyrimidin-1-yl)ethyl]-5-chloro-2-methoxy-6-methylphenyl}pyridin-2-yl)amino]ethanol], less than 10 nM.

What is called IC50 is the point on the concentration scale where inhibition reaches its midpoint.
